We go through two compounds from patent US20120058236A1, “SWEETENER COMPOSITION COMPRISING HIGH SOLUBILITY FORM OF REBAUDIOSIDE A AND METHOD OF MAKING” (Cargill Incorporated, priority 2009, published 2012).

Structures are written as SMILES.

Data set [1] can be described thus: Stability of aqueous solution of rebaudioside A crystal form. Type of data set: physicochemical. The following applies: solution from Form 1 crystals containing more than about 1 g/100 g water. The source says: In some sweetening applications it is desirable to provide a sweetener composition of rebaudioside A that has a higher solubility in water than Form 2. […] Increased solubility in water allows more of the sweetener to be dissolved in a food product in order to provide the desired sweetness level. Increased solubility may be desirable in food products such as syrups and concentrates.

Data set [2] is classed as physicochemical. The method, then: 10 mg of sample was mixed with 0.5 mL deionized water and stirred by a magnetic stirrer at room temperature. As the solid was completely dissolved, more solid was added to the system with the increments of 10-40 mg until the solution became cloudy, which corresponded to the final concentration of 0.41 g/mL. The cloudy solution was filtered through a Millex-GV 0.22 um filter into a pre-weighted aluminum pan and the known mass of clear filtered solution was placed into an oven at 85° C. The solvent was completely evaporated and the residual solid was weighted to determine solubility.
16 mg of sample was mixed with 1 mL deionized water and was stirred by a magnetic stirrer at room temperature. As the solid was completely dissolved, more solid was added to the system with the increments of 10-40 mg until the solution became cloudy, which corresponded to the final concentration of 0.4 g/mL. The cloudy solution was filtered through a Millex-GV 0.22 um filter into a pre-weighted aluminum pan and the known mass of clear filtered solution was placed into an oven at 85° C. The solvent was completely evaporated and the residual solid was weighted to determine solubility.

As for `C=C1C[C@@]23CC[C@H]4[C@@](C)(CCC[C@@]4(C)C(=O)O[C@@H]4O[C@H](CO)[C@@H](O)[C@H](O)[C@H]4O)[C@@H]2CC[C@]1(O[C@@H]1O[C@H](CO)[C@@H](O)[C@H](O[C@@H]2O[C@H](CO)[C@@H](O)[C@H](O)[C@H]2O)[C@H]1O[C@@H]1O[C@H](CO)[C@@H](O)[C@H](O)[C@H]1O)C3` [Form 1, rebaudioside A], the “Stability in solution (conversion of dissolved form)” value in data set [1] is “tends to convert to Form 2 within hours to days”. Also, in data set [1] (after hours to days), the “Concentration left in solution after conversion to Form 2” value is “about 1 g/100 g water”.
Regarding `C=C1C[C@@]23CC[C@H]4[C@@](C)(CCC[C@@]4(C)C(=O)O[C@@H]4O[C@H](CO)[C@@H](O)[C@H](O)[C@H]4O)[C@@H]2CC[C@]1(O[C@@H]1O[C@H](CO)[C@@H](O)[C@H](O[C@@H]2O[C@H](CO)[C@@H](O)[C@H](O)[C@H]2O)[C@H]1O[C@@H]1O[C@H](CO)[C@@H](O)[C@H](O)[C@H]1O)C3` [Form 2, rebaudioside A], in data set [2], the “Solubility at 22° C. (grams/100 grams water)” value was determined as 0.154 grams/100 grams water and the “Solubility in water at 24° C. (typical, stated in text)” value is reported as ≤ 1 grams rebaudioside A/100 grams.
